Common to all, as to format: in vivo, C57BL/6 male mice
The test system of test [1] is immunosuppressed animals induced by anticancer drug (cyclophosphamide). In words: Immunosuppressed animals induced by cyclophosphamide: colitis improvement (colon). The note with it: cyclophosphamide (CP)-treated mice, 1×10^9 CFU/mouse orally once a day for 5 days. On the procedure: To 100 mg of colon tissue, 200 μl of 10 mM potassium phosphate buffer (pH 7.0) containing 0.5% hexadecyl trimethyl ammonium bromide was added and homogenized. Then, the supernatant was obtained by centrifugation for 10 minutes at 4° C. and 10,000 g. A volume of 50 μl of the supernatant was added to 0.95 mk of reaction solution (containing 1.6 mM tetramethyl benzidine and 0.1 mM H2O2), reacted at 37° C., and absorbance was monitored over time at 650 nm.
(§1) Hippocampus, colon, and spleen tissues were homogenized by adding 1 ml of RIPA buffer (Gibco) containing protease inhibitor cocktail and centrifuged at 4° C., 13000 rpm for 15 min to obtain supernatant. Indicators of this supernatant were measured using an ELISA kit (Ebioscience).
C57BL/6 male mice (5 weeks old, 19-21 g) were divided (6 mice in each group) and acclimatized to the laboratory for 1 week. To induce intestinal and brain diseases, the mice were administered with cyclophosphamide (CP, 150 mg/kg, dissolved in physiological saline) for 1 day, rested for 1 day, and then administered intraperitoneally the next day. Meanwhile, the normal group was administered intraperitoneally with 0.1 ml of physiological saline. […] The day following the conclusion of sample administration, the experimental animals were sacrificed, and samples from the brain hippocampus, colon, and spleen were collected. In the Hippocampus, inflammatory indicators, such as IFN-γ, TNF-α, and IL-10, were measured using ELISA. In the colon, intestinal length and inflammatory indicators, such as IFN-γ, TNF-α, and IL-10, were measured. In the spleen, Th1 cells and Treg cells were measured by FACS (Fluorescence-Activated Cell Sorting).

For test [2], the system named is animals with antibiotic-induced gut microbiota imbalance. The test can be described thus: Animals with antibiotic (ampicillin)-induced gut microbiota imbalance: cognitive improvement, hippocampus indicators. The note with it: ampicillin (AP)-treated mice, 1×10^9 CFU/mouse orally once a day for 5 days; for IFN-γ/IL-10 / IL-10 / Interferon (IFN)-γ / TNF-a/IL-10 / TNF-α: hippocampus. As for the experimental part:
as §1
The Y-shaped maze measurement device is shaped like an alphabetical Y with three arms extending from it, each arm being 25 cm long, 14 cm high, 5 cm wide, and positioned at the same angle. At the end of one arm of the Y-shaped maze, the animal was placed with its head facing out and allowed to freely navigate the arm for 8 minutes. The animal's movements were recorded, and reported as arm entries when the animal entered the arm with its hind paw, and the animal's movement was represented by an alternation, which was defined as one alternation when the animal passed through the three arms in succession. The amount of spontaneous alternation behavior was expressed as a percentage between the actual number of alternations and the maximum possible number of alternations (i.e., the total number of […] minus 2).
The experiment was conducted in a box (40×40×40 cm) made so that the outside could not be seen from the inside. Two objects (A, A′) of the same shape and size were fixedly disposed in a box and the mouse was relocated to start from the center of the box. Then, the number of times the mouse made contact with the two objects was recorded for 10 minutes. After 24 hours, one of the two objects was replaced with a new object (A, B). Then, one original object and one new object were prepared, and the animal's exploration time was measured.
C57BL/6 male mice (5 weeks old, 19-21 g) were divided (6 mice in each group) and acclimatized to the laboratory for 1 week. To induce intestinal and brain diseases, the mice were orally administered with ampicillin (AP, 100 mg/kg, dissolved in physiological saline) for 3 days. Meanwhile, the normal group was orally administered with 0.1 ml of physiological saline. […] The day following the conclusion of sample administration, the experimental animals were sacrificed, and samples from the brain hippocampus, colon, and spleen were collected. In the Hippocampus, inflammatory indicators, such as IFN-γ, TNF-α, and IL-10, were measured using ELISA. In the colon, intestinal length and inflammatory indicators, such as IFN-γ, TNF-α, and IL-10, were measured. In the spleen, Th1 cells and Treg cells were measured by FACS (Fluorescence-Activated Cell Sorting), and in feces, endotoxin (LPS) and gut microbial communities were measured.

The next test concerns healthy animal. The test can be described thus: Healthy animal: spleen parameters. The note with it: healthy mice, 1×10^9 CFU/mouse orally once a day for 5 days; for Foxp3 (fold change) / Tbet (fold change) / Tbet/Foxp3: spleen qPCR; for IFN-γ/IL-10 / IL-10 / Interferon (IFN)-γ / NK cell cytoxicity (%) / Phagocytosis (%) / TNF-a/IL-10 / TNF-α: spleen. As for the experimental part: as §1
mRNA was isolated from spleen tissue using the RNA Isolation Kit: RNeasy Mini Kit (QIAGEN), converted to cDNA, and qPCR was performed to measure the expression rates of Tbet, Foxp3, and glyceraldehyde 3-phosphate dehydrogenase (GAPDH). The reaction product was first treated at 95° C. for 30 seconds, followed by 38 cycles of 5 seconds at 95° C. and 30 seconds at 72° C. for analysis.
C57BL/6 male mice (5 weeks old, 19-21 g) were divided (6 mice in each group) and acclimatized to the laboratory for 1 week. The mice were orally administered once a day for 5 days with lactic acid bacteria as a test sample suspended in physiological saline solution at a concentration of 1×10^9 CFU per mouse (NK210 alone (LR): 1×10^9 CFU/mouse, NK219 alone (BL): 1×10^9 CFU/mouse, combined (210+219): 210, 8×10^8 CFU/mouse and 219, 2×10^8 CFU/mouse). […] The day following the conclusion of sample administration, the experimental animals were sacrificed, and samples from the brain hippocampus, colon, and spleen were collected. In the Hippocampus, inflammatory indicators, such as IFN-γ, TNF-α, and IL-10, were measured using ELISA. In the colon, intestinal length and inflammatory indicators, such as IFN-γ, TNF-α, and IL-10, were measured. In the spleen, Th1 cells and Treg cells were measured by FACS (Fluorescence-Activated Cell Sorting).

The values that follow come from patent US20250009819A1, “NOVEL PROBIOTICS AND USE THEREOF” (PBLBIOLAB CO., LTD., priority 2021, published 2025).

Bifidobacterium longum NK219: in test [1], the “Colon (cm)” value is on record as 4.95 cm, the IFN-γ/IL-10 was found to be 3.32, the IL-10 came out at 13.00 pg/mg and the “Interferon (IFN)-γ” value amounted to 38.64 pg/mg. In test [1], this substance yielded an MPO activity of 4.62 μUnit/mg, a TNF-a/IL-10 of 2.12 and a TNF-α of 26.73 pg/mg. Moreover, in test [2], the “Exoporation (%) (in NOR task)” value turned out to be 83.21%, the “Spontaneous alteration (%) (in Y-maze task)” value worked out at 70.54%, the IFN-γ/IL-10 came out at 0.48 and the IL-10 came out at 50.29 pg/mg. Also, in test [2], the “Interferon (IFN)-γ” value turned out to be 24.33 pg/mg, the TNF-a/IL-10 is 0.28 and the TNF-α turned out to be 12.43 pg/mg. Also, in the test on healthy animal, the “Foxp3 (fold change)” value was determined as 1.05 fold change, the “Tbet (fold change)” value was determined as 1.80 fold change, the Tbet/Foxp3 is recorded as 1.86 and the IFN-γ/IL-10 is 1.35. In addition, in the test with healthy animal, the IL-10 is on record as 9.29 pg/mg, the “Interferon (IFN)-γ” value is 12.56 pg/mg, the “NK cell cytoxicity (%)” value is reported as 8.52% and the “Phagocytosis (%)” value stood at 64.57%. In addition, in the test on healthy animal, the TNF-a/IL-10 turned out to be 0.38 and the TNF-α was 3.49 pg/mg.
Turning to Lactobacillus rhamnosus NK210, in test [1], the “Colon (cm)” value came to 4.98 cm, the IFN-γ/IL-10 stood at 3.05, the IL-10 was 9.65 pg/mg and the “Interferon (IFN)-γ” value came to 28.79 pg/mg. Also, in test [1], the MPO activity is on record as 4.79 μUnit/mg, the TNF-a/IL-10 is listed as 2.19 and the TNF-α was determined as 20.60 pg/mg. Further, in test [2], the “Exoporation (%) (in NOR task)” value is reported as 76.25%, the “Spontaneous alteration (%) (in Y-maze task)” value was 73.01%, the IFN-γ/IL-10 came to 0.47 and the IL-10 amounted to 48.89 pg/mg. In test [2], the “Interferon (IFN)-γ” value is recorded as 23.18 pg/mg, the TNF-a/IL-10 came out at 0.26 and the TNF-α was found to be 13.37 pg/mg. In the test on healthy animal, the “Foxp3 (fold change)” value is given as 1.05 fold change, the “Tbet (fold change)” value amounted to 1.41 fold change, the Tbet/Foxp3 came out at 1.45 and the IFN-γ/IL-10 is 1.38. Besides, in the test on healthy animal, the IL-10 came to 9.45 pg/mg, the “Interferon (IFN)-γ” value is listed as 13.02 pg/mg, the “NK cell cytoxicity (%)” value was found to be 6.65% and the “Phagocytosis (%)” value is 50.03%. Also, in the test with healthy animal, the TNF-a/IL-10 is 0.37 and the TNF-α was 3.48 pg/mg.
